Data reported in PMC9947563, “Identification of the molecular determinants of antagonist potency in the allosteric binding pocket of human P2X4” (Frontiers in Pharmacology, 2023).
Changes are numbered by the printed parent chain. pEC50, pIC50: −log10 of the molar value. Read-outs that look alike come from different tables or passages of the source.

Assays:
rP2X4 = details: cited from earlier work
human P2X4 open channel = system: human P2X4 open channel; design: method as in Bidula et al. (2022); details: ref Bidula et al. (2022); cited from earlier work
mP2X4 = details: cited from earlier work
[1] = molecular target: T1, human P2X4 I312T (h4-I312T) (Homo sapiens, UniProt Q99571, I312T); test: ATP-induced calcium influx (Fluo-4) in 1321N1 cells stably expressing human P2X4 I312T; assay type: cell-based; details: 1321N1 cells, human P2X4 I312T
T1 construct: expressed in transfected cells; host or cells: 1321N1 astrocytoma cells, stably transfected
T1 sequence (Q99571 1-388 I312T): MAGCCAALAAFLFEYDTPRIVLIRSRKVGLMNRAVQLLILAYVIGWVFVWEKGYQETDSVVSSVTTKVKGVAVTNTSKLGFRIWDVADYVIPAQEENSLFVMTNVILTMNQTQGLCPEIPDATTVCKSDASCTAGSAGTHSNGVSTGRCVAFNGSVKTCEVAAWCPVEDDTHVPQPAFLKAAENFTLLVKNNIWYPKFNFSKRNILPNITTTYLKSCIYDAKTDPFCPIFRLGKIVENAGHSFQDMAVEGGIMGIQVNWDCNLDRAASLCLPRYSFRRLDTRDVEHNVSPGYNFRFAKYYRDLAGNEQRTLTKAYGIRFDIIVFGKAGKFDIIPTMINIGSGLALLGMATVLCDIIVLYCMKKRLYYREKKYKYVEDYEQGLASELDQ
Procedure: Plasmid encoding rat P2X4 (r4-WT) ([Royle et al., 2005]) was a kind gift from Ruth Murrell-Lagnado, whilst that encoding human P2X4 with a C-terminal (His)10 tag has been reported previously ([Young et al., 2008]).
(§1) 1321N1 astrocytoma cells were cultured (at 37°C, 5% CO2) in Dulbecco’s modified Eagle’s medium (DMEM/F-12 with Glutamax) supplemented with 10% foetal bovine serum (FBS) and 200 unit/mL of penicillin and streptomycin antibiotics (Fisher Scientific). Stably transfected clones were grown in DMEM/F-12 with Glutamax medium supplemented with G-418 (Geneticin®, Fisher Scientific), 600 μg/mL and 150 μg/mL during selection and maintenance, respectively. […] Each cell line was then tested for P2X4 receptor expression by Western blot and for functionality using the Ca^2+ influx assay.
(§2) Cells were plated the day before assay into poly-lysine-coated 96-well plates at 40–55,000 cells/mL. […] Prior to assay, buffer was replaced with fresh modified Ringer’s buffer containing probenecid but not the dye. […] A Fluoroskan Ascent FL plate reader (Fisher Scientific) equipped with a solution dispenser and an appropriate filter pair (excitation: 485 nm, emission: 538 nm) was used to record 5-s baseline followed by P2X4-mediated calcium influx measurements for 20–25 s after ATP stimulation (final concentration ranging between 0.03 and 100 μM in buffered solution, pH = 7.4). The collected responses were normalized to the first data-point recorded after ATP injection.
(§3) Data processing and data analysis were carried out using Graphpad Prism version 6 for Mac. Figures are presented as Mean ± SEM. […] When comparing data obtained from multiple independent experiments (N), each dataset was normalized to the mean value obtained for the vehicle control.

[2] = molecular target: T2, rat P2X4 T312I (r4-T312I) (Rattus norvegicus, UniProt P51577, T312I); test: ATP-induced calcium influx (Fluo-4) in 1321N1 cells stably expressing rat P2X4 T312I; assay type: cell-based; details: 1321N1 cells, rat P2X4 T312I
T2 construct: expressed in transfected cells; host or cells: 1321N1 astrocytoma cells, stably transfected
T2 sequence (P51577 1-388 T312I): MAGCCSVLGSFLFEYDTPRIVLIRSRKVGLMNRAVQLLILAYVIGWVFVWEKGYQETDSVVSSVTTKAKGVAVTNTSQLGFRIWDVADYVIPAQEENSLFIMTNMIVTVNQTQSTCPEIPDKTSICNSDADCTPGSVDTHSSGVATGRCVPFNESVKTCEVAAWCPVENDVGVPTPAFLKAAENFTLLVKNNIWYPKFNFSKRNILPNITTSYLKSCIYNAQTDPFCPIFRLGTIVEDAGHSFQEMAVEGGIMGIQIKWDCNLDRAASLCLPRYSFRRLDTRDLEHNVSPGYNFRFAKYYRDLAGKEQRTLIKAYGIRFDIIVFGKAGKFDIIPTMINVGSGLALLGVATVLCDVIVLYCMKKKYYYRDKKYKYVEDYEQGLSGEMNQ
Source text: Plasmid encoding rat P2X4 (r4-WT) ([Royle et al., 2005]) was a kind gift from Ruth Murrell-Lagnado, whilst that encoding human P2X4 with a C-terminal (His)10 tag has been reported previously ([Young et al., 2008]). Plasmids containing rat P2X4 T312I (r4-T312I) and human P2X4 I312T mutants (h4-I312T) were generated using the QuikChange Lightning site-directed mutagenesis kit (Agilent) according to manufacturer’s instructions. Sequencing of the constructs and of the genomic DNA from stably transfected cells confirmed correct full coding sequences.
(§4) 1321N1 astrocytoma cells were cultured (at 37°C, 5% CO2) in Dulbecco’s modified Eagle’s medium (DMEM/F-12 with Glutamax) supplemented with 10% foetal bovine serum (FBS) and 200 unit/mL of penicillin and streptomycin antibiotics (Fisher Scientific). Stably transfected clones were grown in DMEM/F-12 with Glutamax medium supplemented with G-418 (Geneticin®, Fisher Scientific), 600 μg/mL and 150 μg/mL during selection and maintenance, respectively. FuGene HD Transfection Reagent (Promega) was used according to the manufacturer’s protocol for the generation of stable cell line expressing h4-WT, r4-WT, h4-I312T, and r4-T312I. Each cell line was then tested for P2X4 receptor expression by Western blot and for functionality using the Ca^2+ influx assay.
(§5) Cells were plated the day before assay into poly-lysine-coated 96-well plates at 40–55,000 cells/mL. To load cells with calcium-sensitive fluorescent dye, culture medium was replaced with modified Ringer’s buffer (140 mM NaCl, 10 mM HEPES, 10 mM Glucose, 1 mM MgCl2, 1 mM CaCl2, 2.5 mM KCl, 0.5% BSA, pH = 7.4) containing 2.6 μM FLUO4-AM (Fisher Scientific) and 250 μM probenecid (Sigma), and cells were incubated for 20–30 min. Prior to assay, buffer was replaced with fresh modified Ringer’s buffer containing probenecid but not the dye. […] A Fluoroskan Ascent FL plate reader (Fisher Scientific) equipped with a solution dispenser and an appropriate filter pair (excitation: 485 nm, emission: 538 nm) was used to record 5-s baseline followed by P2X4-mediated calcium influx measurements for 20–25 s after ATP stimulation (final concentration ranging between 0.03 and 100 μM in buffered solution, pH = 7.4). The collected responses were normalized to the first data-point recorded after ATP injection.
(§6) Data processing and data analysis were carried out using Graphpad Prism version 6 for Mac. Figures are presented as Mean ± SEM. Statistical significance of any difference observed between samples was calculated through one-way ANOVA followed by Dunnett’s multiple comparisons test with a single pooled variance (control, unless otherwise specified) or, when comparing only two sets of data, using an unpaired t-test with Welch’s correction. When comparing data obtained from multiple independent experiments (N), each dataset was normalized to the mean value obtained for the vehicle control.

[3] = molecular target: T3, rat P2X4 wild type (r4-WT) (Rattus norvegicus, UniProt P51577); test: ATP-induced calcium influx (Fluo-4) in 1321N1 cells stably expressing rat P2X4 wild type; assay type: cell-based; details: 1321N1 cells, rat P2X4 WT
T3 construct: expressed in transfected cells; host or cells: 1321N1 astrocytoma cells, stably transfected
T3 sequence (P51577 1-388): T2 sequence (P51577 1-388 T312I) with I312T
Procedure: as §4, §5, §6

[4] = molecular target: T4, human P2X4 wild type (h4-WT) (Homo sapiens, UniProt Q99571); test: ATP-induced calcium influx (Fluo-4) in 1321N1 cells stably expressing human P2X4 wild type; assay type: cell-based; details: 1321N1 cells, human P2X4 WT
T4 construct: expressed in transfected cells; host or cells: 1321N1 astrocytoma cells, stably transfected
T4 sequence (Q99571 1-388): T1 sequence (Q99571 1-388 I312T) with T312I
Procedure: as §1, §2, §3

hP2X4 = details: read-out: hP2X4 IC50, cited from earlier work
injury-induced allodynia = system: injury-induced allodynia; design: method as in Matsumura et al., 2016; Ushioda et al., 2020; details: ref Matsumura et al., 2016; Ushioda et al., 2020; cited from earlier work
P2X4 = system: P2X4; design: method as in Hernandez-Olmos et al., 2012; details: ref Hernandez-Olmos et al., 2012; cited from earlier work
[5] = ref Hernandez-Olmos et al., 2012; cited from earlier work
[6] = approximate value for the series, ref Matsumura et al., 2016, Ushioda et al., 2020, read-out: IC50 at mouse P2X4
[7] = ref Hernandez-Olmost et al. (2012)

O=C1CN=C(c2cccc(Br)c2)c2oc3ccccc3c2N1 [5-BDBD]
pIC50 (rP2X4; ref Abdelrahman et al. (2017)): 5.46 | pIC50 (rP2X4; ref Coddou et al. (2019)): 6.12 | capability of blocking the open channel (human P2X4 open channel): not | pIC50 (mP2X4; ref Abdelrahman et al. (2017), read-out: mP2X4 IC50): 5.69

Nc1ncnc2c1ncn2[C@@H]1O[C@H](COP(=O)(O)OP(=O)(O)OP(=O)(O)O)[C@@H](O)[C@H]1O [ATP]
ATP pEC50 (± SEM) [1]: 6.112 (± 0.028) | pEC50 [1]: 6.11 | Hill coefficient (ATP concentration-response) [1]: 2.057 | ATP pEC50 (± SEM) [2]: 6.136 (± 0.0645) | pEC50 [2]: 6.14 | Hill coefficient (ATP concentration-response) [2]: 2.475 | ATP pEC50 (± SEM) [3]: 5.770 (± 0.0507) | pEC50 [3]: 5.77 | Hill coefficient (ATP concentration-response) [3]: 1.441 | ATP pEC50 (± SEM) [4]: 5.901 (± 0.0577) | pEC50 [4]: 5.90 | Hill coefficient (ATP concentration-response) [4]: 1.098

NS(=O)(=O)c1cc(NC(=O)Cc2ccccc2)ccc1Oc1cccc(Cl)c1 [BAY-1797, N-[4-(3-Chlorophenoxy)-3-sulfamoylphenyl]-2-phenylacetamide]
pIC50 (rP2X4; ref Werner et al. (2019)): 7.00 | pIC50 (mP2X4; ref Werner et al. (2019), read-out: mP2X4 IC50): 6.70

O=C(C1CC1)N1CCc2cc(Br)c(S(=O)(=O)Nc3ccc(Cl)c(C(F)(F)F)c3)cc21 [Indophagolin]
pIC50 (hP2X4; ref Carnero Corrales et al. (2021)): 6.85

CC(C)c1ccc(NC(=S)NC(=O)C23CC4CC(CC(C4)C2)C3)c(Br)c1 [Mahmood-4n]
pIC50 (hP2X4; ref Mahmood et al. (2022a)): 7.40

O=C(NC(=S)Nc1c(Br)ccc(C(F)(F)F)c1Br)c1ccc2c(c1)OCO2 [Mahmood-9g]
pIC50 (hP2X4; ref Mahmood et al. (2022b)): 7.26

CC(C)c1ccc(NC(=S)NC(=O)c2ccc3c(c2)OCO3)c(Br)c1 [Mahmood-9o]
pIC50 (hP2X4; ref Mahmood et al. (2022b)): 7.41

O=C1CC(=O)N(c2cccc(-c3noc(=S)[nH]3)c2)c2ccc3ccccc3c2N1 [NP-1815-PX]
effect in in vivo rodent model of injury-induced allodynia (injury-induced allodynia): anti-allodynic effect | pIC50 (mP2X4; [6]): ~6.60

O=C1CC(=O)N(c2ccc(NS(=O)(=O)Cc3ccccc3Cl)cc2)c2ccc3ccccc3c2N1 [NP-A]
effect in in vivo rodent model of injury-induced allodynia (injury-induced allodynia): anti-allodynic effect | pIC50 (mP2X4; [6]): ~6.60

O=C1CC(=O)N(c2ccc(NC(=O)c3ccccc3I)cc2)c2ccc3ccccc3c2N1 [NP-B]
pIC50 (hP2X4; ref Matsumura et al., 2016, Ushioda et al., 2020): 6.37 | effect in in vivo rodent model of injury-induced allodynia (injury-induced allodynia): anti-allodynic effect | pIC50 (mP2X4; [6]): ~6.60

O=C(OCc1ccccc1)N1c2ccccc2Oc2ccccc21 [PSB-12054]
pIC50 (hP2X4; [7]): 6.72 | pIC50 (rP2X4; [7]): 5.68 | potency as P2X4 antagonist (in words) (P2X4): low micromolar range | solubility (in words) [5]: partial solubility | pIC50 (mP2X4; ref Hernandez-Olmost et al. (2012), read-out: mP2X4 IC50): 5.74

Cc1ccc(S(=O)(=O)N2c3ccccc3Oc3ccccc32)cc1 [PSB-12062]
potency as P2X4 antagonist (in words) (P2X4): low micromolar range

Cc1c(-c2cccc(-c3nnn[nH]3)c2)c2[nH]c3ccccc3c2[nH]c1=O [Sunovion-A]
pIC50 (hP2X4; ref Newcom and Spear (2013)): > 7.00
